{
  "source": "patent US20260257980A1",
  "about": "“NOVEL DIMETHYLCHALCONE DERIVATIVE” (CHUNG-ANG UNIVERSITY INDUSTRY-ACADEMIC COOPERATION …, priority 2022, published 2026)",
  "data": [
    {"tested_on": "C2C12 myoblasts differentiated into myotubes", "assay": "Fatty acid oxidation rate (14CO2 from [1-14C] palmitate) in differentiated C2C12 myotubes", "assay_type": "cell-based", "conditions": "10 μM DMC derivative, 24 hours, lysate with 0.2 mmol/L [1-14C] palmitate, 3 hours, positive control AICAR, control compounds CON1-CON6, FIG. 1", "experimental": "To measure the fatty acid oxidation rate, C2C12 myoblasts were primarily cultured in DMEM supplemented with 10% fetal bovine serum, and then cultured for 5 days in DMEM supplemented with 2% horse serum in order to differentiate into myotubes. Then, the differentiated myotubes were treated with 10 μM of the DMC derivative, and cultured for 24 hours, and the cells were then harvested. Next, the harvested cells were lysed using a mitochondrial isolation buffer (250 mmol/L sucrose, 10 mmol/L Tris-HCl, and 1 mmol/L EDTA), treated with 0.2 mmol/L [1-^14C] palmitate, and then allowed to react for 3 hours. Next, the amount of ^14CO2 thus generated was measured, and the measured amount of ^14CO2 was corrected for the total amount of proteins to compare the fatty acid oxidation rate. In this case, AICAR was used as a positive control, and the compounds shown in Table 2 below were used as control compounds.", "values": [
      {"smiles": "COCOc1c(C)c(O)c(C(=O)/C=C/c2cccc(F)c2)c(OC)c1C", "note": "[Compound 1, 1-(2′-hydroxy-4′-(methoxymethoxy)-6′-methoxy-3′,5′-dimethylphenyl)-3-(3-fluorophenyl)-2-propen-1-one]", "fatty acid oxidation rate (amount of 14CO2 generated, corrected for total protein)": "higher fatty acid oxidation effect than the derivatives (CON1, CON2)"},
      {"smiles": "COc1c(C)c(O)c(C)c(O)c1C(=O)/C=C/c1cccc(F)c1", "note": "[Compound 8, 1-(2′,4′-dihydroxy-6′-methoxy-3′,5′-dimethylphenyl)-3-(3-fluorophenyl)-2-propen-1-one]", "fatty acid oxidation rate (amount of 14CO2 generated, corrected for total protein)": "higher fatty acid oxidation effect than the derivatives (CON3, CON4)"},
      {"smiles": "COc1c(C)c(OC)c(C(=O)/C=C/c2cccc(F)c2)c(OC)c1C", "note": "[Compound 15, 1-(2′,4′,6′-trimethoxy-3′,5′-dimethylphenyl)-3-(3-fluorophenyl)-2-propen-1-one]", "fatty acid oxidation rate (amount of 14CO2 generated, corrected for total protein)": "higher fatty acid oxidation effect than the derivatives (CON5, CON6)"}
    ]}
  ]
}
